Laboratory results taken from PubChem BioAssay (NCI).
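Assay format: 96-well plates, 48-hour exposure. TGI: concentration producing complete growth inhibition.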

Columns and labels:
Test in all cases: growth of human tumour cells (NCI), 48 h
786-0 renal = tested on: 786-0 renal
A498 renal = tested on: A498 renal
A549 NSCLC = tested on: A549 NSCLC
ACHN renal = tested on: ACHN renal
BT-549 breast = tested on: BT-549 breast
CAKI-1 renal = tested on: CAKI-1 renal
COLO 205 colon = tested on: COLO 205 colon
DU-145 prostate = tested on: DU-145 prostate
EKVX NSCLC = tested on: EKVX NSCLC
HCC-2998 colon = tested on: HCC-2998 colon
HCT-116 colon = tested on: HCT-116 colon
HCT-15 colon = tested on: HCT-15 colon
HL-60(TB) leukemia = tested on: HL-60(TB) leukemia
HOP-62 NSCLC = tested on: HOP-62 NSCLC
HOP-92 NSCLC = tested on: HOP-92 NSCLC
HS 578T breast = tested on: HS 578T breast
HT29 colon = tested on: HT29 colon
IGROV1 ovarian = tested on: IGROV1 ovarian
K-562 leukemia = tested on: K-562 leukemia
KM12 colon = tested on: KM12 colon
LOX IMVI melanoma = tested on: LOX IMVI melanoma
M14 melanoma = tested on: M14 melanoma
MALME-3M melanoma = tested on: MALME-3M melanoma
MCF7 breast = tested on: MCF7 breast
MDA-MB-435 = tested on: MDA-MB-435
MDA-N = tested on: MDA-N
MOLT-4 leukemia = tested on: MOLT-4 leukemia
NCI-H226 lung = tested on: NCI-H226 lung
NCI-H23 lung = tested on: NCI-H23 lung
NCI-H460 lung = tested on: NCI-H460 lung
NCI-H522 lung = tested on: NCI-H522 lung
NCI/ADR-RES ovarian = tested on: NCI/ADR-RES ovarian
OVCAR-3 ovarian = tested on: OVCAR-3 ovarian
OVCAR-4 ovarian = tested on: OVCAR-4 ovarian
OVCAR-5 ovarian = tested on: OVCAR-5 ovarian
OVCAR-8 ovarian = tested on: OVCAR-8 ovarian
PC-3 prostate = tested on: PC-3 prostate
RPMI-8226 leukemia = tested on: RPMI-8226 leukemia
RXF 393 renal = tested on: RXF 393 renal
SF-268 CNS = tested on: SF-268 CNS
SF-295 CNS = tested on: SF-295 CNS
SF-539 CNS = tested on: SF-539 CNS
SK-MEL-2 melanoma = tested on: SK-MEL-2 melanoma
SK-MEL-28 melanoma = tested on: SK-MEL-28 melanoma
SK-MEL-5 melanoma = tested on: SK-MEL-5 melanoma
SK-OV-3 ovarian = tested on: SK-OV-3 ovarian
SN12C renal = tested on: SN12C renal
SNB-19 CNS = tested on: SNB-19 CNS
SNB-75 CNS = tested on: SNB-75 CNS
SW-620 colon = tested on: SW-620 colon
T-47D breast = tested on: T-47D breast
TK-10 renal = tested on: TK-10 renal
U251 CNS = tested on: U251 CNS
UACC-257 melanoma = tested on: UACC-257 melanoma
UACC-62 melanoma = tested on: UACC-62 melanoma
UO-31 renal = tested on: UO-31 renal
CCRF-CEM leukemia = tested on: CCRF-CEM leukemia
MDA-MB-231 breast = tested on: MDA-MB-231 breast
SR leukemia = tested on: SR leukemia

**Q.** What does the source list for `C/C(=N\Nc1ncnc2ccccc12)c1ccccn1`?
**A.** TGI (786-0 renal): 12.7 µM; TGI (A498 renal): 16.4 µM; TGI (A549 NSCLC): 32.6 µM; TGI (ACHN renal): 8.46 µM; TGI (BT-549 breast): 35.5 µM; TGI (CAKI-1 renal): 1.67 µM; TGI (COLO 205 colon): 17.9 µM; TGI (DU-145 prostate): 13.7 µM; TGI (EKVX NSCLC): > 52.6 µM; TGI (HCC-2998 colon): 36 µM; TGI (HCT-116 colon): 13.9 µM; TGI (HCT-15 colon): > 56.8 µM; TGI (HL-60(TB) leukemia): 10.7 µM; TGI (HOP-62 NSCLC): 1.07 µM; TGI (HOP-92 NSCLC): 7.75 µM; TGI (HS 578T breast): 47.5 µM; TGI (HT29 colon): > 46.6 µM; TGI (IGROV1 ovarian): 2.84 µM; TGI (K-562 leukemia): > 4.64 µM; TGI (KM12 colon): 22.1 µM; TGI (LOX IMVI melanoma): 5.45 µM; TGI (M14 melanoma): 33 µM; TGI (MALME-3M melanoma): 1.58 µM; TGI (MCF7 breast): 25.1 µM; TGI (MDA-MB-435): 33 µM; TGI (MDA-N): 27.5 µM; TGI (MOLT-4 leukemia): > 9.41 µM; TGI (NCI-H226 lung): 1.13 µM; TGI (NCI-H23 lung): 16.4 µM; TGI (NCI-H460 lung): 21.2 µM; TGI (NCI-H522 lung): 1.53 µM; TGI (NCI/ADR-RES ovarian): 0.551 µM; TGI (OVCAR-3 ovarian): 12.8 µM; TGI (OVCAR-4 ovarian): > 51.5 µM; TGI (OVCAR-5 ovarian): 64.6 µM; TGI (OVCAR-8 ovarian): 2.41 µM; TGI (PC-3 prostate): 31.6 µM; TGI (RPMI-8226 leukemia): 1.62 µM; TGI (RXF 393 renal): 17.3 µM; TGI (SF-268 CNS): 7.2 µM; TGI (SF-295 CNS): 17.9 µM; TGI (SF-539 CNS): 3.29 µM; TGI (SK-MEL-2 melanoma): 33.9 µM; TGI (SK-MEL-28 melanoma): 45.6 µM; TGI (SK-MEL-5 melanoma): 13.2 µM; TGI (SK-OV-3 ovarian): 4.03 µM; TGI (SN12C renal): 6.71 µM; TGI (SNB-19 CNS): 59.1 µM; TGI (SNB-75 CNS): 39.7 µM; TGI (SW-620 colon): 45.6 µM; TGI (T-47D breast): 20.7 µM; TGI (TK-10 renal): 18.6 µM; TGI (U251 CNS): 34.4 µM; TGI (UACC-257 melanoma): 8.65 µM; TGI (UACC-62 melanoma): 3.22 µM; TGI (UO-31 renal): 1.75 µM

**Q.** How did the TGI (786-0 renal) turn out when `C=C(C)C(=O)N1c2ccc(OC)cc2CC1C(=O)OCC` (stereo not drawn) was run?
**A.** The TGI was greater than 100 µM.

**Q.** And the TGI (A498 renal)?
**A.** Its TGI is greater than 100 µM.

**Q.** And the TGI (A549 NSCLC)?
**A.** The TGI was greater than 100 µM.

**Q.** And the TGI (ACHN renal)?
**A.** The TGI was greater than 100 µM.

**Q.** What about the TGI (BT-549 breast) of the same compound?
**A.** Its TGI is greater than 100 µM.

**Q.** What about the TGI (CAKI-1 renal) of the same compound?
**A.** Its TGI is greater than 100 µM.

**Q.** And the TGI (CCRF-CEM leukemia)?
**A.** The TGI was greater than 100 µM.

**Q.** And the TGI (COLO 205 colon)?
**A.** Its TGI is greater than 100 µM.

**Q.** What about the TGI (DU-145 prostate) of the same compound?
**A.** Its TGI is greater than 100 µM.

**Q.** And the TGI (EKVX NSCLC)?
**A.** The TGI was greater than 100 µM.

**Q.** What about the TGI (HCC-2998 colon) of the same compound?
**A.** Its TGI is greater than 100 µM.

**Q.** And the TGI (HCT-116 colon)?
**A.** Its TGI is greater than 100 µM.

**Q.** What about the TGI (HCT-15 colon) of the same compound?
**A.** Its TGI is greater than 100 µM.

**Q.** What about the TGI (HOP-62 NSCLC) of the same compound?
**A.** Its TGI is greater than 100 µM.

**Q.** What about the TGI (HS 578T breast) of the same compound?
**A.** Its TGI is greater than 100 µM.

**Q.** What about the TGI (HT29 colon) of the same compound?
**A.** Its TGI is greater than 100 µM.

**Q.** What about the TGI (IGROV1 ovarian) of the same compound?
**A.** The TGI was greater than 100 µM.

**Q.** What about the TGI (K-562 leukemia) of the same compound?
**A.** The TGI was greater than 100 µM.

**Q.** And the TGI (KM12 colon)?
**A.** Its TGI is greater than 100 µM.

**Q.** What about the TGI (M14 melanoma) of the same compound?
**A.** The TGI was greater than 100 µM.

**Q.** And the TGI (MCF7 breast)?
**A.** Its TGI is greater than 100 µM.

**Q.** What about the TGI (MDA-MB-231 breast) of the same compound?
**A.** The TGI was greater than 100 µM.

**Q.** And the TGI (MDA-N)?
**A.** Its TGI is greater than 100 µM.

**Q.** And the TGI (MOLT-4 leukemia)?
**A.** Its TGI is greater than 100 µM.

**Q.** What about the TGI (NCI-H226 lung) of the same compound?
**A.** Its TGI is greater than 100 µM.

**Q.** And the TGI (NCI-H23 lung)?
**A.** Its TGI is greater than 100 µM.

**Q.** What about the TGI (NCI-H460 lung) of the same compound?
**A.** The TGI was greater than 100 µM.

**Q.** And the TGI (NCI-H522 lung)?
**A.** The TGI was greater than 100 µM.

**Q.** What about the TGI (NCI/ADR-RES ovarian) of the same compound?
**A.** The TGI was greater than 100 µM.

**Q.** And the TGI (OVCAR-3 ovarian)?
**A.** Its TGI is greater than 100 µM.

**Q.** And the TGI (OVCAR-4 ovarian)?
**A.** Its TGI is greater than 100 µM.

**Q.** What about the TGI (OVCAR-5 ovarian) of the same compound?
**A.** The TGI was greater than 100 µM.

**Q.** What about the TGI (OVCAR-8 ovarian) of the same compound?
**A.** Its TGI is greater than 100 µM.

**Q.** What about the TGI (PC-3 prostate) of the same compound?
**A.** Its TGI is greater than 100 µM.

**Q.** And the TGI (SF-268 CNS)?
**A.** The TGI was greater than 100 µM.

**Q.** And the TGI (SF-295 CNS)?
**A.** The TGI was greater than 100 µM.

**Q.** What about the TGI (SF-539 CNS) of the same compound?
**A.** The TGI was greater than 100 µM.

**Q.** And the TGI (SK-MEL-2 melanoma)?
**A.** Its TGI is greater than 100 µM.

**Q.** And the TGI (SK-MEL-28 melanoma)?
**A.** Its TGI is greater than 100 µM.

**Q.** What about the TGI (SK-MEL-5 melanoma) of the same compound?
**A.** Its TGI is greater than 100 µM.

**Q.** What about the TGI (SK-OV-3 ovarian) of the same compound?
**A.** The TGI was greater than 100 µM.

**Q.** And the TGI (SN12C renal)?
**A.** Its TGI is greater than 100 µM.

**Q.** And the TGI (SNB-19 CNS)?
**A.** Its TGI is greater than 100 µM.

**Q.** And the TGI (SNB-75 CNS)?
**A.** The TGI was greater than 100 µM.

**Q.** And the TGI (SR leukemia)?
**A.** Its TGI is greater than 100 µM.

**Q.** And the TGI (SW-620 colon)?
**A.** The TGI was greater than 100 µM.

**Q.** And the TGI (T-47D breast)?
**A.** Its TGI is greater than 100 µM.

**Q.** And the TGI (TK-10 renal)?
**A.** The TGI was greater than 100 µM.

**Q.** What about the TGI (U251 CNS) of the same compound?
**A.** Its TGI is greater than 100 µM.

**Q.** What about the TGI (UACC-257 melanoma) of the same compound?
**A.** Its TGI is greater than 100 µM.

**Q.** And the TGI (UACC-62 melanoma)?
**A.** Its TGI is greater than 100 µM.

**Q.** What about the TGI (UO-31 renal) of the same compound?
**A.** The TGI was greater than 100 µM.
